According to patent US11649255B2, “Indazoles as hematopoietic progenitor kinase 1 (HPK1) inhibitors and methods using same” (1st Biotherapeutics, Inc., priority 2020, dated 2023):
Structures can show the parent of a compound that is named as a salt.

Molecular target: recombinant human HPK1 (Homo sapiens (Human), UniProt Q92918)
Assay: HPK1 kinase assay (ADP-Glo)
Assay type: biochemical
Conditions: 25 μM ATP, MBP substrate
Method in brief: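 Activity was read as ADP formed, detected by ADP-Glo luminescence after the reaction of 5 ng recombinant human HPK1 with MBP and ATP (stocks 0.5 μg/μl and 25 μM) for 40 min at 30 °C. Buffer was Tris pH 7.5 with MgCl2, BSA and DTT, with compound in 0.5% DMSO. IC50 came from inhibition curves.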

Chain of recombinant human HPK1 (Q92918 whole entry): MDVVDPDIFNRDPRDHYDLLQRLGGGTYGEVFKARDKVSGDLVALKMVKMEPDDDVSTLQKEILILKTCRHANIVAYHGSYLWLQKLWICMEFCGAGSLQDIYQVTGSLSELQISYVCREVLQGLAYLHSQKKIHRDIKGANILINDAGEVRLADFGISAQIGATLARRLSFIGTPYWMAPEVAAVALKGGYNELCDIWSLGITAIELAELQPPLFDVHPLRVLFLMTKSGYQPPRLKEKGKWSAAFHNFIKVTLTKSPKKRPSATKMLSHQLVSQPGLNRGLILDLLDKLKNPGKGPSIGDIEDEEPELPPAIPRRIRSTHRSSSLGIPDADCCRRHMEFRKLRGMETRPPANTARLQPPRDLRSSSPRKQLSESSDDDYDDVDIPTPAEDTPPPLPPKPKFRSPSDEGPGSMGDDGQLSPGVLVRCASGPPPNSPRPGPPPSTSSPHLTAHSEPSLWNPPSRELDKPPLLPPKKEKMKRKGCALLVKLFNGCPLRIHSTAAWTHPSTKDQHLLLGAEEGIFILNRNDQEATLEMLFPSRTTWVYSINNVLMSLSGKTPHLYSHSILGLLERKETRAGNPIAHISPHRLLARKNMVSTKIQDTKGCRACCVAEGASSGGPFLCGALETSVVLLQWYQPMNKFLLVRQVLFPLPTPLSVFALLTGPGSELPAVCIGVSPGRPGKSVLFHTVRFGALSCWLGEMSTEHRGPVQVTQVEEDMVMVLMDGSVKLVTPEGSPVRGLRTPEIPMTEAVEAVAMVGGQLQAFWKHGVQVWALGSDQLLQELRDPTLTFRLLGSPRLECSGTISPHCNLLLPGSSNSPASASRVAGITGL

Structure (SMILES)	IC50
CNC1CCC(N(C)c2c(F)c(Cl)c(-c3ccn4nc(NC(=O)[C@@H]5C[C@@H]5F)cc4c3)c3cn[nH]c23)CC1 (stereo partly drawn) [Example 505, (1S,2S)-N-(5-(5-chloro-6-fluoro-7-(methyl((1S,4S)-4-(methylamino)cyclohexyl)amino)-1H-indazol-4-yl)pyrazolo[1,5-a]pyridin-2-yl)-2-fluorocyclopropane-1-carboxamide]	< 100 nM
COc1cc(C)c(-c2ccn3nc(NC(=O)[C@@H]4C[C@@H]4F)cc3c2)c2cn[nH]c12 [Example 506, (1S,2S)-2-fluoro-N-(5-(7-methoxy-5-methyl-1H-indazol-4-yl)pyrazolo[1,5-a]pyridin-2-yl)cyclopropane-1-carboxamide]	< 100 nM
O=C(Nc1cc2cc(-c3c(Cl)c(F)c(OCC4CCCO4)c4[nH]ncc34)ccn2n1)[C@@H]1C[C@@H]1F (stereo partly drawn) [Example 507, (1S,2S)-N-(5-(5-chloro-6-fluoro-7-((tetrahydrofuran-2-yl)methoxy)-1H-indazol-4-yl)pyrazolo[1,5-a]pyridin-2-yl)-2-fluorocyclopropane-1-carboxamide]	< 100 nM
CNC1CCC(Nc2c(F)c(Cl)c(-c3ccn4nc(NC(=O)[C@@H]5C[C@@H]5F)cc4c3)c3cn[nH]c23)CC1 (stereo partly drawn) [Example 508, (1S,2S)-N-(5-(5-chloro-6-fluoro-7-((4-(methylamino)cyclohexyl)amino)-1H-indazol-4-yl)pyrazolo[1,5-a]pyridin-2-yl)-2-fluorocyclopropane-1-carboxamide]	< 100 nM
Nc1c(F)c(Cl)c(-c2ccn3nc(NC(=O)[C@@H]4C[C@@H]4F)cc3c2)c2cn[nH]c12 [Example 510, (1S,2S)-N-(5-(7-amino-5-chloro-6-fluoro-1H-indazol-4-yl)pyrazolo[1,5-a]pyridin-2-yl)-2-fluorocyclopropane-1-carboxamide]	< 100 nM
CCOc1cc(C)c(-c2ccn3nc(NC(=O)[C@@H]4C[C@@H]4F)cc3c2)c2cn[nH]c12 [Example 511, (1S,2S)-N-(5-(7-ethoxy-5-methyl-1H-indazol-4-yl)pyrazolo[1,5-a]pyridin-2-yl)-2-fluorocyclopropane-1-carboxamide]	< 100 nM
CN(C)C1CCC(Nc2c(F)c(Cl)c(-c3ccn4nc(NC(=O)[C@@H]5C[C@@H]5F)cc4c3)c3cn[nH]c23)CC1 (stereo partly drawn) [Example 512, (1S,2S)-N-(5-(5-chloro-7-((4-(dimethylamino)cyclohexyl)amino)-6-fluoro-1H-indazol-4-yl)pyrazolo[1,5-a]pyridin-2-yl)-2-fluorocyclopropane-1-carboxamide]	< 100 nM
CCc1c(F)c(SC)c2[nH]ncc2c1-c1ccn2nc(NC(=O)[C@@H]3C[C@@H]3F)cc2c1 [Example 513, (1S,2S)-N-(5-(5-ethyl-6-fluoro-7-(methylthio)-1H-indazol-4-yl)pyrazolo[1,5-a]pyridin-2-yl)-2-fluorocyclopropane-1-carboxamide dihydrochloride]	< 100 nM
NC1CCC(Nc2c(F)c(Cl)c(-c3ccn4nc(NC(=O)[C@@H]5C[C@@H]5F)cc4c3)c3cn[nH]c23)CC1 (stereo partly drawn) [Example 515, (1S,2S)-N-(5-(7-((4-aminocyclohexyl)amino)-5-chloro-6-fluoro-1H-indazol-4-yl)pyrazolo[1,5-a]pyridin-2-yl)-2-fluorocyclopropane-1-carboxamide]	< 100 nM
CCc1c(F)c(N(C)C)c2[nH]ncc2c1-c1ccn2nc(NC(=O)[C@@H]3C[C@@H]3F)cc2c1 [Example 519, (1S,2S)-N-(5-(7-(dimethylamino)-5-ethyl-6-fluoro-1H-indazol-4-yl)pyrazolo[1,5-a]pyridin-2-yl)-2-fluorocyclopropane-1-carboxamide]	< 100 nM
CCc1c(F)c(SCC(=O)N(C)C)c2[nH]ncc2c1-c1ccn2nc(NC(=O)[C@@H]3C[C@@H]3F)cc2c1 [Example 522]	< 100 nM
O=C(Nc1cc2cc(-c3c(Cl)c(F)c(O)c4[nH]ncc34)ccn2n1)[C@@H]1C[C@@H]1F [Example 528, (1S,2S)-N-(5-(5-chloro-6-fluoro-7-hydroxy-1H-indazol-4-yl)pyrazolo[1,5-a]pyridin-2-yl)-2-fluorocyclopropane-1-carboxamide]	< 100 nM
O=C(Nc1cc2cc(-c3c(Cl)c(F)c(F)c4[nH]ncc34)ccn2n1)[C@@H]1C[C@@H]1F [Example 536, (1S,2S)-N-(5-(5-chloro-6,7-difluoro-1H-indazol-4-yl)pyrazolo[1,5-a]pyridin-2-yl)-2-fluorocyclopropane-1-carboxamide]	< 100 nM

More lines, now with the values ahead:

IC50	Structure (SMILES)
< 100 nM	CN(c1c(F)c(Cl)c(-c2ccn3nc(NC(=O)[C@@H]4C[C@@H]4F)cc3c2)c2cn[nH]c12)C1CCC(N)CC1 (stereo partly drawn) [Example 514]
< 100 nM	CC(C)(C)OC(=O)NC1CCC(Nc2c(F)c(Cl)c(-c3ccn4nc(NC(=O)[C@@H]5C[C@@H]5F)cc4c3)c3cn[nH]c23)CC1 (stereo partly drawn) [Example 516, tert-butyl (4-((5-chloro-6-fluoro-4-(2-((1S,2S)-2-fluorocyclopropane-1-carboxamido)pyrazolo[1,5-a]pyridin-5-yl)-1H-indazol-7-yl)amino)cyclohexyl)carbamate]
< 100 nM	O=C(Nc1cc2cc(-c3c(Cl)c(F)c(NC4CCC(O)CC4)c4[nH]ncc34)ccn2n1)[C@@H]1C[C@@H]1F (stereo partly drawn) [Example 517, (1S,2S)-N-(5-(5-chloro-6-fluoro-7-((4-hydroxycyclohexyl)amino)-1H-indazol-4-yl)pyrazolo[1,5-a]pyridin-2-yl)-2-fluorocyclopropane-1-carboxamide]
< 100 nM	CCc1c(F)c(N(CC)CC)c2[nH]ncc2c1-c1ccn2nc(NC(=O)[C@@H]3C[C@@H]3F)cc2c1 [Example 518, (1S,2S)-N-(5-(7-(diethylamino)-5-ethyl-6-fluoro-1H-indazol-4-yl)pyrazolo[1,5-a]pyridin-2-yl)-2-fluorocyclopropane-1-carboxamide]
< 100 nM	CCc1c(F)c(SCC(=O)O)c2[nH]ncc2c1-c1ccn2nc(NC(=O)[C@@H]3C[C@@H]3F)cc2c1 [Example 526, 2-((5-ethyl-6-fluoro-4-(2-((1S,2S)-2-fluorocyclopropane-1-carboxamido)pyrazolo[1,5-a]pyridin-5-yl)-1H-indazol-7-yl)thio)acetic acid]
< 100 nM	CN(c1c(F)c(Cl)c(-c2ccn3nc(NC(=O)[C@@H]4C[C@@H]4F)cc3c2)c2cn[nH]c12)C1CCC(N)C1 (stereo partly drawn) [Example 527, (1S,2S)-N-(5-(7-((3-aminocyclopentyl)(methyl)amino)-5-chloro-6-fluoro-1H-indazol-4-yl)pyrazolo[1,5-a]pyridin-2-yl)-2-fluorocyclopropane-1-carboxamide]
< 100 nM	Cc1c(F)c(OCCOC(N)=O)c2[nH]ncc2c1-c1ccn2nc(NC(=O)[C@@H]3C[C@@H]3F)cc2c1 [Example 535, 2-((6-fluoro-4-(2-((1S,2S)-2-fluorocyclopropane-1-carboxamido)pyrazolo[1,5-a]pyridin-5-yl)-5-methyl-1H-indazol-7-yl)oxy)ethyl carbamate]
< 100 nM	CC(=O)Nc1c(F)c(Cl)c(-c2ccn3nc(NC(=O)[C@@H]4C[C@@H]4F)cc3c2)c2cn[nH]c12 [Example 537, (1S,2S)-N-(5-(7-acetamido-5-chloro-6-fluoro-1H-indazol-4-yl)pyrazolo[1,5-a]pyridin-2-yl)-2-fluorocyclopropane-1-carboxamide]
